# From paper PMC7466040, “Sevanol and Its Analogues: Chemical Synthesis, Biological Effects and Molecular Docking” (Pharmaceuticals, 2020)
# Experiments:
# rat ASIC1a = target: T1, rat ASIC1a (Rattus norvegicus, UniProt P55926); assay: Two-electrode voltage clamp on X. laevis oocytes expressing rat ASIC1a; format: cell-based
# T1 construct: expressed in transfected cells; host or cells: Xenopus laevis oocytes (cRNA injection)
# T1 sequence (P55926 1-526): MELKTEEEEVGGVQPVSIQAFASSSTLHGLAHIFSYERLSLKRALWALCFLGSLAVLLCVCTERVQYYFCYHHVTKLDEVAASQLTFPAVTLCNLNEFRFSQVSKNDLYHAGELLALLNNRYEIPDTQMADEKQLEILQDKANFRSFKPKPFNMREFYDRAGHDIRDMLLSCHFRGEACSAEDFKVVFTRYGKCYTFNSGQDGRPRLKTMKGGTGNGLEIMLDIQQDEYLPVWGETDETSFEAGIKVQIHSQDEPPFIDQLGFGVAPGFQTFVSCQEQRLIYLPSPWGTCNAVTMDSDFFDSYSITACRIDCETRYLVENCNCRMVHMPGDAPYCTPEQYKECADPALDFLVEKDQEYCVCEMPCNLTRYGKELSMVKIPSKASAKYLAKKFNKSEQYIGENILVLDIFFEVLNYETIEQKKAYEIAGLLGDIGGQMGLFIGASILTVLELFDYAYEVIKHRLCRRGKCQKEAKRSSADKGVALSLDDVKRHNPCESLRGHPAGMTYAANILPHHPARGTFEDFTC
# Protocol: (§1) Testing the activity of synthetic sevanol (s706) (as a mixture of 75% of sevanol and 25% of isosevanol) and its analogues (s590, EA, and s788) was carried out by the standard two-electrode voltage clamp method on X. laevis oocytes expressing rat ASIC1a and ASIC3 channels. The activation of the channels was performed using a rapid change of the solution from conditioning pH 7.4 to a solution with pH 5.5. Sevanol and its two analogues, s590 and EA, inhibited ASIC1a and ASIC3 channels.
# (§2) Oocytes were harvested from female frogs anaesthetized with tricaine methane sulfonate (MS222) (0.17% solution), and the surgery was performed in an ice bath to avoid heavy bleeding. Defolliculated stage IV and V cells were injected with 2.5 and 10 ng cRNA, synthesized from PCi plasmids containing the rat ASIC1a and rat ASIC3 isoforms, respectively, using the Nanoliter 2000 microinjection system (World Precision Instruments, USA). The injected oocytes were kept for 2–3 days at 17 to 19 °C, and then for up to 5 days at 15 °C in a ND96 medium containing (in mM) 96 NaCl, 2 KCl, 1.8 CaCl2, 1 MgCl2, and 5 HEPES titrated to pH 7.4 with NaOH supplemented with gentamycin (50 μg/mL). Two-electrode voltage clamp recordings were performed at a holding potential of −50 mV using a GeneClamp 500 amplifier (Axon Instruments), and the data were filtered at 20 Hz and digitized at 100 Hz by an AD converter L780 (LCard, Russia). Microelectrodes were filled with 3 M KCl. The conditioning bath solution was ND96; the pH was adjusted to 7.4. The activating test solution was constructed based on the ND-96 buffer, in which 5 mM HEPES was replaced with 10 mM MES and pH was adjusted to 5.5. A computer-controlled valve system was used to achieve a rapid solution exchange in the recording chamber. A four parameter logistic equation was used for the curve-fitting analysis: F(x) = ((a1 − a2)/(1 + (x/x0)n)) + a2, where x is the concentration of the compound; F(x) is the response value at a given concentration of the compound; a1 is the control response value (fixed at 100%); x0 is the IC50 value; n is the Hill coefficient (slope factor); and a2 is the response value at the maximal inhibition (% of control).
# (§3) Figure 2 The inhibitory activity of sevanol (s706) and its analogues. Currents were elicited by a drop from pH 7.4 to 5.5; the holding potential was −50 mV; (A,C) are dose–response curves for s706, s590 and EA inhibitory effects on ASIC1a and ASIC3 channels, respectively; (B,D) are reciprocal IC50 values for s706, s590 and EA inhibitory effects on ASIC1a and ASIC3 channels, respectively. The data were fitted by the logistic equation. Each point is the mean ± SEM of 5–6 measurements. * p < 0.05, ** p < 0.005.
# rat ASIC3 = target: T2, rat ASIC3 (Rattus norvegicus, UniProt O35240); assay: Two-electrode voltage clamp on X. laevis oocytes expressing rat ASIC3; format: cell-based
# T2 construct: expressed in transfected cells; host or cells: Xenopus laevis oocytes (cRNA injection)
# T2 sequence (O35240 1-533): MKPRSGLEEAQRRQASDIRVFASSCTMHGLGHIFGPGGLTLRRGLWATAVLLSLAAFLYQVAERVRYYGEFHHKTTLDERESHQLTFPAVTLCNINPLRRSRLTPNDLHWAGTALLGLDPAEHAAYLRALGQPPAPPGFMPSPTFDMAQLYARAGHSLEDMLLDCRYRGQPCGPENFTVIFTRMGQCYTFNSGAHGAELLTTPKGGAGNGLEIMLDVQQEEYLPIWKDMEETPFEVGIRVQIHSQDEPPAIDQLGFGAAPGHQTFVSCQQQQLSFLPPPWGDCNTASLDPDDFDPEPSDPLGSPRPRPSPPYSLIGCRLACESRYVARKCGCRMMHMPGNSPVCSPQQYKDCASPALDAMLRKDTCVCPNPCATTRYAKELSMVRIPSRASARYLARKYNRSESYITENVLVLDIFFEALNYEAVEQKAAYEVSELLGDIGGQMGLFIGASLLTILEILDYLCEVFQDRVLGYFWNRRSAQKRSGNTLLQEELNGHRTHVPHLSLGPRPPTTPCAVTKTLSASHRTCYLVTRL
# Protocol: as §1, §2, §3
# [1] = pH 7.4 to 5.5, effect reversible
smiles,measurement,setting,value
O=C(O)CC(C(=O)O)C(OC(=O)C1=Cc2cc(O)c(O)cc2C(c2ccc(O)c(O)c2)C1C(=O)OC(C(=O)O)C(CC(=O)O)C(=O)O)C(=O)O (centres unmarked) [sevanol],IC50,"rat ASIC1a; X. laevis oocytes, pH drop 7.4 to 5.5, holding potential −50 mV, mean ± SEM of 5–6, read-out: IC50, inhibition of ASIC1a current",228 ± 37.4 µM
same,"maximal current block, ASIC1a",rat ASIC1a; [1],100%
same,IC50,"rat ASIC3; X. laevis oocytes, pH drop 7.4 to 5.5, holding potential −50 mV, mean ± SEM of 5–6, read-out: IC50, inhibition of ASIC3 current",175 ± 18 µM
same,"maximal current block, ASIC3",rat ASIC3; [1],100%
same,effectiveness in inhibiting ASIC3 relative to ASIC1a,rat ASIC3; ratio of ASIC1a and ASIC3 inhibition,1.3 times
